Test results published in US20040044000A1, “Isoquinoline derivatives as matrix metalloproteinase inhibitors” (priority 2002, published 2004).
Like-named read-outs stand apart in the source and are kept apart here.

Target: T1, MMP-13 catalytic domain (MMP-13CD) (Homo sapiens, UniProt P45452)
T1 construct: use the catalytic domain of the MMP-13 enzyme, namely matrix metalloproteinase-13 catalytic domain (“MMP-13CD”), rather than the corresponding full-length enzyme
Test: Inhibition of MMP-13 catalytic domain (thiopeptolide substrate hydrolysis)
Assay type: biochemical
Excerpt: The assays measure the amount by which a test compound reduces the hydrolysis of a thiopeptolide substrate catalyzed by a matrix metalloproteinase enzyme. Such assays are described in detail by Ye et al., in Biochemistry, 1992;31(45):11231-11235, which is incorporated herein by reference. One such assay is described below in Biological Method 1.
Some of the particular methods described below use the catalytic domain of the MMP-13 enzyme, namely matrix metalloproteinase-13 catalytic domain (“MMP-13CD”), rather than the corresponding full-length enzyme, MMP-13. It has been shown previously by Ye Qi-Zhuang, Hupe D., and Johnson L. (Current Medicinal Chemistry, 1996;3:407-418) that inhibitor activity against a catalytic domain of an MMP is predictive of the inhibitor activity against the respective full-length MMP enzyme.
Thiopeptolide substrates show virtually no decomposition or hydrolysis at or below neutral pH in the absence of a matrix metalloproteinase enzyme. A typical thiopeptolide substrate commonly utilized for assays is Ac-Pro-Leu-Gly-thioester-Leu-Leu-Gly-OEt. A 100 μL assay mixture will contain 50 mM of N-2-hydroxyethylpiperazine-N′-2-ethanesulfonic acid buffer (“HEPES,” pH 7.0), 10 mM CaCl2, 100 μM thiopeptolide substrate, and 1 mM 5,5′-dithio-bis-(2-nitro-benzoic acid) (DTNB). The thiopeptolide substrate concentration may be varied, for example from 10 to 800 μM to obtain Km and Kcat values. The change in absorbance at 405 nm is monitored on a Thermo Max microplate reader (molecular Devices, Menlo Park, Calif.) at room temperature (22° C.). The calculation of the amount of hydrolysis of the thiopeptolide substrate is based on E412=13600 M^−1 cm^−1 for the DTNB-derived product 3-carboxy-4-nitrothiophenoxide. Assays are carried out with and without matrix metalloproteinase inhibitor compounds, and the amount of hydrolysis is compared for a determination of inhibitory activity of the test compounds.
Test compounds were evaluated at various concentrations in order to determine their respective IC50 values, the micromolar concentration of compound required to cause a 50% inhibition of catalytic activity of the respective enzyme.

[1] = read-out: IC50 with MMP-13 catalytic domain
[2] = Biological Table 2, compounds of Example 66, read-out: MMP-13CD IC50
[3] = Biological Table 1, read-out: MMP-13CD IC50

O=C(O)c1ccc(Cn2ccc3ccc(C#CCc4ccccc4)cc3c2=O)cc1 [Example 1, 4-[1-Oxo-7-(3-phenyl-prop-1-ynyl)-1H-isoquinolin-2-ylmethyl]benzoic Acid]
IC50 [1]: 0.0018 µM

O=c1c2cc(C#CCc3ccccc3)ccc2ccn1Cc1cccc(Cl)c1 [Example 10, 2-(3-Chlorobenzyl)-7-(3-phenylprop-1-ynyl)-2H-isoquinolin-1-one]
IC50 [1]: 0.052 µM

O=c1c2cc(C#CCc3ccccc3)ccc2ccn1CCCCCCO [Example 66ac, 2-(6-Hydroxy-hexyl)-7-(3-phenyl-prop-1-ynyl)-2H-isoquinolin-1-one]
IC50 [2]: 7.1 µM

O=C(NCc1cncnc1)c1ccc2ccn(Cc3ccc(F)c(F)c3)c(=O)c2c1 [Example 26, 2-(3,4-difluorobenzyl)-1-oxo-1,2-dihydroisoquinoline-7-carboxylic Acid (pyrimidin-5-ylmethyl)-amide]
IC50 [3]: 12 µM

O=c1c2cc(C#CCc3ccccc3)ccc2ccn1CC(CO)(CO)CO [Example 66b, 2-(3-Hydroxy-2,2-bis-hydroxymethyl-propyl)-7-(3-phenyl-prop-1-ynyl)-2H-isoquinolin-1-one]
IC50 [2]: > 100 µM

Cc1ccc(CNC(=O)c2ccc3ccn(CCOc4ccccc4)c(=O)c3c2)cc1 [Example 47, 1-oxo-2-(2-phenoxyethyl)-1,2-dihydroisoquinoline-7-carboxylic Acid 4-methylbenzamide]
IC50 [3]: > 10 µM

COc1cc(CNC(=O)c2ccc3ccn(CCOc4ccccc4)c(=O)c3c2)ccn1 [Example 43, 1-oxo-2-(2-phenoxyethyl)-1,2-dihydroisoquinoline-7-carboxylic Acid (2-methoxypyridin-4-ylmethyl)amide]
IC50 [3]: 3.8 µM

O=c1c2cc(C#CCc3ccccc3)ccc2ccn1CCCC(F)(F)F [Example 66ai, 7-(3-Phenyl-prop-1-ynyl)-2-(4,4,4-trifluoro-butyl)-2H-isoquinolin-1-one]
IC50 [2]: 14 µM

Cc1ccc(CNC(=O)c2ccc3ccn(Cc4ccc(S(C)(=O)=O)cc4)c(=O)c3c2)cc1 [Example 55, 2-(4-methane-sulfonylbenzyl)-1-oxo-1,2-dihydro-isoquinoline-7-carboxylic Acid 4-methylbenzyl-amide]
IC50 [3]: > 30 µM

CC1OCCCC1n1ccc2ccc(C#CCc3ccccc3)cc2c1=O (centres unmarked) [Example 66g, 2-(2-Methyl-tetrahydro-pyran-3-yl)-7-(3-phenyl-prop-1-ynyl)-2H-isoquinolin-1-one]
IC50 [2]: > 30 µM

Cc1ccc(CNC(=O)c2ccc3ccn(Cc4ccc(C#N)cc4)c(=O)c3c2)cc1 [Example 39, 2-(4-cyanobenzyl)-1-oxo-1,2-dihydro-isoquinoline-7-carboxylic Acid 4-methylbenzylamide]
IC50 [3]: > 10 µM

O=c1c2cc(C#CCc3ccccc3)ccc2ccn1CC(F)(F)F [Example 66ah, 7-(3-Phenyl-prop-1-ynyl)-2-(2,2,2-trifluoro-ethyl)-2H-isoquinolin-1-one]
IC50 [2]: 24 µM

N#CCCCCn1ccc2ccc(C#CCc3ccccc3)cc2c1=O [Example 66j, 5-[1-Oxo-7-(3-phenyl-prop-1-ynyl)-1H-isoquinolin-2-yl]-pentanenitrile]
IC50 [2]: 11 µM

N#Cc1ccc(Cn2ccc3ccc(C(=O)NCc4cccnc4)cc3c2=O)cc1 [Example 34, 2-(4-cyanobenzyl)-1-oxo-1,2-dihydro-isoquinoline-7-carboxylic acid (pyridin-3-ylmethyl)amide]
IC50 [3]: 3.4 µM

N#Cc1ccc(Cn2ccc3ccc(C(=O)NCc4cncnc4)cc3c2=O)cc1 [Example 38, 2-(4-cyanobenzyl)-1-oxo-1,2-dihydro-isoquinoline-7-carboxylic Acid (pyrimidin-5-ylmethyl)amide]
IC50 [3]: 17 µM

CCOC(=O)Cn1ccc2ccc(C#CCc3ccccc3)cc2c1=O [Example 66x, [1-Oxo-7-(3-phenyl-prop-1-ynyl)-1H-isoquinolin-2-yl]-acetic acid ethyl ester]
IC50 [2]: 11 µM

N#CCCCn1ccc2ccc(C#CCc3ccccc3)cc2c1=O [Example 66c, 4-[1-Oxo-7-(3-phenyl-prop-1-ynyl)-1H-isoquinolin-2-yl]-butyronitrile]
IC50 [2]: 22.5 µM
